From US8471005B2 (Cephalon, Inc., priority 2008, dated 2013) come the findings set out here.

Each structure is given as a SMILES string.

For one assay, the target named is T1, ALK (Homo sapiens, UniProt Q9UM73).
T1 construct: host or cells: baculovirus expression system
The experiment in a line: ALK Kinase Assay (ELISA/TRF, PLC-γ substrate). The following applies: ALK kinase inhibition, 1 μM ATP; read-out: ALK Potency. The class given is biochemical. Summed up: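 First, plates are coated with substrate (phospholipase C-γ, 10 μg/mL, TBS). Next, 30 ng/ml ALK initiates phosphorylation for 15 min at 37° C. Then Eu-N1 PT66 antibody is added for detection, and a nonlinear dose-response fit of percent inhibition yields IC50.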
(In general: In an ELISA, binding on a coated surface is turned into a signal by an enzyme label.)

A further assay has as its target T2, JAK2 (Homo sapiens, UniProt O60674).
T2 construct: host or cells: baculovirus expression system
The experiment in a line: Recombinant Human JAK2 Kinase Assay (TRF). The following applies: JAK2 kinase inhibition, 0.2 μM ATP; read-out: JAK2 Potency. The class given is biochemical. Summed up: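 Baculovirus-expressed JAK2 (15 ng/ml) phosphorylated a biotinylated 15-mer peptide captured on Neutravidin, in 20 mM HEPES pH 7.2, 0.2 μM ATP, 1 mM MnCl2, 0.1% BSA, 2.5% DMSO final, 20 min at room temperature. Phosphoproduct detected by time-resolved fluorescence with Eu-N1-labelled PY100 antibody.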

T1 sequence (Q9UM73 19-1620): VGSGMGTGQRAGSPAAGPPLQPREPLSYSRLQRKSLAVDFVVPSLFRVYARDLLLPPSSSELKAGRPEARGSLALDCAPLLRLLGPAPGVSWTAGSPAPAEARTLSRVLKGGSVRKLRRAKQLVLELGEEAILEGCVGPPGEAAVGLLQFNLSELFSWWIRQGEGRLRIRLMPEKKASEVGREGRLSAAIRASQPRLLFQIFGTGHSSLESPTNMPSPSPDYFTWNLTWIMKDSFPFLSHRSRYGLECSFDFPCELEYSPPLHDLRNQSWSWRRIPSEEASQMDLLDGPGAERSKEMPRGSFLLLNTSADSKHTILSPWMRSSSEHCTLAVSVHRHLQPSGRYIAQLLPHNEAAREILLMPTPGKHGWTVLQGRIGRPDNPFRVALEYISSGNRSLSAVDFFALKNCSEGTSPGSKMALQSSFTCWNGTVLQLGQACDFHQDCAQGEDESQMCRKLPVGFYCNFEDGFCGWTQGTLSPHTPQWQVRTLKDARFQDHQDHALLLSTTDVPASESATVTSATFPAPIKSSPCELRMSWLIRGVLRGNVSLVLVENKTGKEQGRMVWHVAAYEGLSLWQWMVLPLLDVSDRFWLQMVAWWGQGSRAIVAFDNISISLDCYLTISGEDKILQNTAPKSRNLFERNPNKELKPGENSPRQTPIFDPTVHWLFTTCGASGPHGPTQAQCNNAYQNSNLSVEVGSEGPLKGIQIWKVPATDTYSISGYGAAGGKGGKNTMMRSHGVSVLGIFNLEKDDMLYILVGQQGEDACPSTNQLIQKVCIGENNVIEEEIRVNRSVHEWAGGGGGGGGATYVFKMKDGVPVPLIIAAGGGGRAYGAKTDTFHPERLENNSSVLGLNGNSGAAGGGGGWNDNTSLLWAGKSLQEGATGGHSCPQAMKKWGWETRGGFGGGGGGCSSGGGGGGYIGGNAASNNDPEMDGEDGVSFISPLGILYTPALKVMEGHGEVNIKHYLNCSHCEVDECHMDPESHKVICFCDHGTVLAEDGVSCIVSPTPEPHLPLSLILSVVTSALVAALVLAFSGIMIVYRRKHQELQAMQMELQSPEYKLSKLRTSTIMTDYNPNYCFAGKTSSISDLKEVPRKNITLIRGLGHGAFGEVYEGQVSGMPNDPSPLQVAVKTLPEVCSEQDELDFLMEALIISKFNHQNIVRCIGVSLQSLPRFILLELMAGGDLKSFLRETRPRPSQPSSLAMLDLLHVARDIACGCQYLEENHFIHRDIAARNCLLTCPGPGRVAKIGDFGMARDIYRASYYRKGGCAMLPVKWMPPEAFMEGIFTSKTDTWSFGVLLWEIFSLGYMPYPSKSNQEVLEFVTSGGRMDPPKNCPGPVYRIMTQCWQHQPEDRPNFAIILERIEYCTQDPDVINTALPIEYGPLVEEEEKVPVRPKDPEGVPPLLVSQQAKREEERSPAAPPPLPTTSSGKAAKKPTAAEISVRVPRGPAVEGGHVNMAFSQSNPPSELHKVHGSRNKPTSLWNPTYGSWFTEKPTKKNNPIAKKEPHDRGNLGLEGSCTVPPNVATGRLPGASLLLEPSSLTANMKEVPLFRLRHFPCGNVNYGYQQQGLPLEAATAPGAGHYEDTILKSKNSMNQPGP
T2 sequence (O60674 whole entry): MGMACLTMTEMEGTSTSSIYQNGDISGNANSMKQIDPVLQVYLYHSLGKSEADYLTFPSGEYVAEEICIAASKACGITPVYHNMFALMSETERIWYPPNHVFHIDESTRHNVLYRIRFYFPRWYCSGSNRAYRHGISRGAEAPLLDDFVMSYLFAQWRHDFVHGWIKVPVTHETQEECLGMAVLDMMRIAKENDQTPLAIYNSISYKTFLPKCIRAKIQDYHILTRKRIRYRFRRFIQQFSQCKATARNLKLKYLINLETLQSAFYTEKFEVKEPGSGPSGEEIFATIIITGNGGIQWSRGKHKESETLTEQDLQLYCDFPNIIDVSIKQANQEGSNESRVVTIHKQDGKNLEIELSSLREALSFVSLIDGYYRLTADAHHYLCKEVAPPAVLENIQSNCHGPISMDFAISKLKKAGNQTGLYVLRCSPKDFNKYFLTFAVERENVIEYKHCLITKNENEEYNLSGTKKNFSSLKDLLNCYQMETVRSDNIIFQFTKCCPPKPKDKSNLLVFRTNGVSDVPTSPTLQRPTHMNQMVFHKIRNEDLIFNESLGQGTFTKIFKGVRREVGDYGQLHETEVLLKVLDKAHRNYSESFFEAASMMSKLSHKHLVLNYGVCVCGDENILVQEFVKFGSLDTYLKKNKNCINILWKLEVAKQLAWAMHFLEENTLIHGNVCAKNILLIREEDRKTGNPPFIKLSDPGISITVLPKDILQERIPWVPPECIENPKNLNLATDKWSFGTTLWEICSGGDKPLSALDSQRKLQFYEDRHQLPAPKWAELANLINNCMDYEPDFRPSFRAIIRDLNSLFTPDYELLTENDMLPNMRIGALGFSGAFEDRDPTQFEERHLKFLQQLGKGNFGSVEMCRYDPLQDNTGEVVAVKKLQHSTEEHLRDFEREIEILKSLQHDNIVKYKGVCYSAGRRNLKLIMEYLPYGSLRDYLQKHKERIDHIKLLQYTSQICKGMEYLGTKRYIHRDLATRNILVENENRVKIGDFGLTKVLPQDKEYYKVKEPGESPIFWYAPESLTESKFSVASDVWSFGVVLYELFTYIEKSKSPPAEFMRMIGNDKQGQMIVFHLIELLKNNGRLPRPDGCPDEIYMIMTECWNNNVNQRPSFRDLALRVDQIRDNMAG

With `Cc1cc(Nc2ncc3ccc(-c4cccc(S(C)(=O)=O)c4)n3n2)ccc1C1CCN(C)CC1` [Example 946, [7-(3-Methanesulfonyl-phenyl)-pyrrolo[2,1-f][1,2,4]triazin-2-yl]-[3-methyl-4-(1-methyl-piperidin-4-yl)-phenyl]-amine], the IC50 at ALK and on JAK2 was less than 100 nM throughout.
For `Cc1cc(Nc2ncc3ccc(-c4ccc(S(C)(=O)=O)cc4)n3n2)ccc1C1CCN(C)CC1` [Example 947, [7-(4-Methanesulfonyl-phenyl)-pyrrolo[2,1-f][1,2,4]triazin-2-yl]-[3-methyl-4-(1-methyl-piperidin-4-yl)-phenyl]-amine], the IC50 at ALK and on JAK2 was less than 100 nM throughout.
As for `Cc1cc(Nc2ncc3ccc(-c4cccc(S(C)(=O)=O)c4)n3n2)ccc1C1CCN(CC(N)=O)CC1` [Example 948, 2-(4-{4-[7-(3-Methanesulfonyl-phenyl)-pyrrolo[2,1-f][1,2,4]triazin-2-ylamino]-2-methyl-phenyl}-piperidin-1-yl)-acetamide], the IC50 on ALK and on JAK2 was less than 100 nM each time.
Regarding `Cc1cc(Nc2ncc3ccc(-c4ccc(S(C)(=O)=O)cc4)n3n2)ccc1C1CCN(CC(N)=O)CC1` [Example 949, 2-(4-{4-[7-(4-Methanesulfonyl-phenyl)-pyrrolo[2,1-f][1,2,4]triazin-2-ylamino]-2-methyl-phenyl}-piperidin-1-yl)-acetamide], the IC50 on ALK and on JAK2 was less than 100 nM in each case.
`CN1CCN(c2cccc(Nc3ncc4ccc(-c5cnn(S(C)(=O)=O)c5)n4n3)c2)CC1` [Example 950, [7-(1-Methanesulfonyl-1H-pyrazol-4-yl)-pyrrolo[2,1-f][1,2,4]triazin-2-yl]-[3-(4-methyl-piperazin-1-yl)-phenyl]-amine]: the values for the IC50 on ALK and at JAK2 were 100 to 1000 nM and less than 100 nM, respectively.
In the case of `CS(=O)(=O)c1cccc(-c2ccc3cnc(Nc4ccc(C5=CCN(CC(N)=O)CC5)c(C(F)(F)F)c4)nn23)c1` [Example 951, 2-(4-{4-[7-(3-Methanesulfonyl-phenyl)-pyrrolo[2,1-f][1,2,4]triazin-2-ylamino]-2-trifluoromethyl-phenyl}-3,6-dihydro-2H pyridin-1-yl) acetamide], the IC50 on ALK is 100 to 1000 nM; on JAK2, less than 100 nM.
On the same counts, the results for `COc1ccccc1-c1ccc2cnc(Nc3ccc(C4=CCN(CC(N)=O)CC4)c(C(F)(F)F)c3)nn12` [Example 952, 2-(4-{4-[7-(2-Methoxy-phenyl)-pyrrolo[2,1-f][1,2,4]triazin-2-ylamino]-2-trifluoromethyl-phenyl}-3,6-dihydro-2H-pyridin-1-yl)-acetamide] are 100 to 1000 nM and less than 100 nM.
On the same counts, the results for `COc1ccc(-c2ccc3cnc(Nc4ccc(C5=CCN(CC(N)=O)CC5)c(C(F)(F)F)c4)nn23)cn1` [Example 953, 2-(4-{4-[7-(6-Methoxy-pyridin-3-yl)-pyrrolo[2,1-f][1,2,4]triazin-2-ylamino]-2-trifluoromethyl-phenyl}-3,6-dihydro-2H-pyridin-1-yl)-acetamide] are 1000 to 10000 nM and less than 100 nM.
As to `CN1CCC(c2ccc(Nc3ncc4ccc(-c5ccn(C)n5)n4n3)cc2)CC1` [Example 954, [4-(1-Methyl-piperidin-4-yl)-phenyl]-[7-(1-methyl-1H-pyrazol-3-yl)-pyrrolo[2,1-f][1,2,4]triazin-2-yl]-amine], the values for the IC50 on ALK and on JAK2 were 100 to 1000 nM and less than 100 nM, respectively.
Turning to `Cn1ccc(-c2ccc3cnc(Nc4ccc(C5CCN(CC(N)=O)CC5)cc4)nn23)n1` [Example 955], the IC50 is 100 to 1000 nM on ALK and less than 100 nM on JAK2.
For the compound `CS(=O)(=O)Nc1cccc(-c2ccc3cnc(Nc4ccc(C5CCN(CC(N)=O)CC5)cc4)nn23)c1` [Example 956, 2-(4-{4-[7-(3-Methanesulfonylamino-phenyl)-pyrrolo[2,1-f][1,2,4]triazin-2-ylamino]-phenyl}-piperidin-1-yl)-acetamide], the IC50 on ALK is 100 to 1000 nM; on JAK2 it was less than 100 nM.
On the same counts, the results for `C[C@H](O)CN1CCC(c2ccc(Nc3ncc4ccc(-c5cccc(NS(C)(=O)=O)c5)n4n3)cc2)CC1` [Example 957, N-[3-(2-{4-[1-((S)-2-Hydroxy-propyl)-piperidin-4-yl]-phenylamino}-pyrrolo[2,1-f][1,2,4]triazin-7-yl)-phenyl]-methanesulfonamide] are less than 100 nM and less than 100 nM.
On the same counts, the results for `CS(=O)(=O)Nc1cccc(-c2ccc3cnc(Nc4ccc(C5CCN(CCO)CC5)cc4)nn23)c1` [Example 958, N-[3-(2-{4-[1-(2-Hydroxy-ethyl)-piperidin-4-yl]-phenylamino}-pyrrolo[2,1-f][1,2,4]triazin-7-yl)-phenyl]-methanesulfonamide] are less than 100 nM and less than 100 nM.
On the same counts, the results for `CN(c1cccc(-c2ccc3cnc(Nc4ccc(C5CCN(CC(N)=O)CC5)cc4)nn23)c1)S(C)(=O)=O` [Example 959, 2-[4-(4-{7-[3-(Methanesulfonyl-methyl-amino)-phenyl]-pyrrolo[2,1-f][1,2,4]triazin-2-ylamino}-phenyl)-piperidin-1-yl]-acetamide] are 100 to 1000 nM and less than 100 nM.
For the compound `C[C@H](O)CN1CCC(c2ccc(Nc3ncc4ccc(-c5cccc(N(C)S(C)(=O)=O)c5)n4n3)cc2)CC1` [Example 960, N-[3-(2-{4-[1-((S)-2-Hydroxy-propyl)-piperidin-4-yl]-phenylamino}-pyrrolo[2,1-f][1,2,4]triazin-7-yl)-phenyl]-N-methyl-methanesulfonamide], the IC50 was 100 to 1000 nM on ALK and less than 100 nM at JAK2.
On the same counts, the results for `CN(c1cccc(-c2ccc3cnc(Nc4ccc(C5CCN(CCO)CC5)cc4)nn23)c1)S(C)(=O)=O` [Example 961, N-[3-(2-{4-[1-(2-Hydroxy-ethyl)-piperidin-4-yl]-phenylamino}-pyrrolo[2,1-f][1,2,4]triazin-7-yl)-phenyl]-N-methyl-methanesulfonamide] are 100 to 1000 nM and less than 100 nM.
On the same counts, the results for `CC(=O)Nc1cc(Nc2ncc3ccc(-c4cnn(C)c4)n3n2)ccc1Cl` [Example 962, N-{2-Chloro-5-[7-(1-methyl-1H-pyrazol-4-yl)pyrrolo[2,1f][1,2,4]triazin-2-ylamino]-phenyl}-acetamide] are 1000 to 10000 nM and less than 100 nM.
On the same counts, the results for `CC(C)C(=O)Nc1cccc(Nc2ncc3ccc(-c4cnn(C)c4)n3n2)c1` [Example 963, N-{3-[7-(1-Methyl-1H-pyrazol-4-yl)-pyrrolo[2,1-f][1,2,4]triazin-2-ylamino]-phenyl}-isobutyramide] are 1000 to 10000 nM and less than 100 nM.
With `Cn1cc(-c2ccc3cnc(Nc4cccc(-n5cccn5)c4)nn23)cn1` [Example 964, [7-(1-Methyl-1H-pyrazol-4-yl)pyrrolo[2,1f][1,2,4]triazin-2-yl]-(3-pyrazol-1-yl-phenyl)-amine], the results for the IC50 at ALK and on JAK2 were 1000 to 10000 nM and less than 100 nM, respectively.
On the same counts, the results for `CNC(=O)c1cccc(Nc2ncc3ccc(-c4cnn(C)c4)n3n2)c1` [Example 965, N-Methyl-3-[7-(1-methyl-1H-pyrazol-4-yl)-pyrrolo[2,1-f][1,2,4]triazin-2-ylamino]-benzamide] are 1000 to 10000 nM and less than 100 nM.
On the same counts, the results for `CC(=O)N1CCc2ccc(Nc3ncc4ccc(-c5cnn(C)c5)n4n3)cc21` [Example 966, 1-{6-[7-(1-Methyl-1H-pyrazol-4-yl)-pyrrolo[2,1-f][1,2,4]triazin-2-ylamino]-2,3-dihydro-indol-1-yl}-ethanone] are 1000 to 10000 nM and less than 100 nM.
On to `Cn1cc(-c2ccc3cnc(Nc4cccc(N5CCCC5=O)c4)nn23)cn1` [Example 967, 1-{3-[7-(1-Methyl-1H-pyrazol-4-yl)-\pyrrolo[2,1-f][1,2,4]triazin-2-ylamino]-phenyl}-pyrrolidin-2-one], for which the IC50 on ALK was 1000 to 10000 nM; at JAK2, less than 100 nM.
On the same counts, the results for `CC(=O)N1CC(C)(C)c2ccc(Nc3ncc4ccc(-c5cnn(C)c5)n4n3)cc21` [Example 968, 1-{3,3-Dimethyl-6-[7-(1-methyl-1H-pyrazol-4-yl)-pyrrolo[2,1-f][1,2,4]triazin-2-ylamino]-2,3-dihydro-indol-1-yl}-ethanone] are 100 to 1000 nM and less than 100 nM.
On the same counts, the results for `CN1CCN(c2cccc(Nc3ncc4ccc(-c5cnn(C)c5)n4n3)c2)CC1` [Example 969, [3-(4-Methyl-piperazin-1-yl)-phenyl]-[7-(1-methyl-1H-pyrazol-4-yl)-pyrrolo[2,1-f][1,2,4]triazin-2-yl]-amine] are 1000 to 10000 nM and less than 100 nM.
Regarding `CN1CCN(c2cccc(Nc3ncc4ccc(-c5cn[nH]c5)n4n3)c2)CC1` [Example 970, [3-(4-Methyl-piperazin-1-yl)-phenyl]-[7-(1H-pyrazol-4yl)-pyrrolo[2,1-f][1,2,4]triazin-2-yl]-amine], the figures for the IC50 on ALK and at JAK2 were 100 to 1000 nM and less than 100 nM, respectively.
On to `CC(C)CCn1cc(-c2ccc3cnc(Nc4cccc(N5CCN(C)CC5)c4)nn23)cn1` [Example 971, {7-[1-(3-Methyl-butyl)-1H-pyrazol-4-yl]-pyrrolo[2,1-f][1,2,4]triazin-2-yl}-[3-(4-methyl-piperazin-1-yl)-phenyl]-amine], for which the IC50 at ALK was 1000 to 10000 nM; at JAK2, less than 100 nM.
`COCCn1cc(-c2ccc3cnc(Nc4cccc(N5CCN(C)CC5)c4)nn23)cn1` [Example 972, {7-[1-(2-Methoxy-ethyl)-1H-pyrazol-4-yl]-pyrrolo[2,1-f][1,2,4]triazin-2-yl}-[3-(4-methyl-piperazin-1-yl)-phenyl]-amine]: the values for the IC50 at ALK and at JAK2 were 1000 to 10000 nM and less than 100 nM, respectively.
